From patent US12421260B2, “Neurokinin-1 antagonist” (SHANGHAI SHENGDI PHARMACEUTICAL CO., LTD, priority 2019, dated 2025)
≈ marks a conversion by molar mass, not a printed value.

Experiments:
[1] = Water solubility (Test Example 1); format: physicochemical; conditions: for solubility: aqueous buffer, thermodynamic from solid
Procedure: 1.1. Preparation of Reagents
The 100 mL strength reagents were prepared as follows:
pH=3.0: phosphate buffer solution: 100 ml of 20 mmol/L NaH2PO4, 0.1M H3PO4, adjusting pH to 3.0.
pH=4.0: phosphate buffer solution: 100 ml of 20 mmol/L NaH2PO4, 0.1M H3PO4, adjusting pH to 4.0. […]
An appropriate amount of test compound was accurately weighed. The solution was added at a small amount each time for several times and stirred until the compound was dissolved, and the content of the compound in the solution was determined.

[2] = Chemical stability of the compounds (Test Example 1); format: physicochemical; conditions: purity loss after placing for 7 days; 4° C. and room temperature
Procedure: 2.1 Test of Stability of the Compounds
About 1 mg of sample was weighed into a vial, then the vial was placed in a vacuum bag and the bag was vacuumized. Then the bag was put into a container containing color-changing silica gel and sealed. Two parallel samples were prepared. Enough samples were prepared according to the sampling time point and placed at 4° C. and room temperature respectively.

[3] = Plasma stability test (Test Example 3); format: in vitro ADME; conditions: human plasma; for plasma concentration of the compound of the examples / plasma concentration of rolapitant after metabolism of the compound of the examples: 37° C.; for stability and metabolism to rolapitant in plasma (in words): up to 180 min
Procedure: The compounds of Example 4, Example 6, Example 10 and Example 11.
Human fresh plasma was donated by volunteers with informed consent.
1) The test compounds in Table 3 were respectively prepared into 30 mM stock solutions with DMSO for later use.
2) The 30 mM stock solution was diluted with DMSO solution to solution I at a concentration of 1600 μM. Then the 1600 μM solution I was diluted with acetonitrile (ACN) to a working solution II at a concentration of 16 μM.
3) 7 time points of 0, 15, 30, 60, 90, 120 and 180 min were set in the experiment with two parallel samples for each time point. Two sample groups were set for each compound. 75 μL plasma and 5 μL of the above prepared working solution II with a concentration of 16 μM were added to each group. The reaction system was incubated at 37° C. until the preset time when the reaction was stopped by 300 μL of the ACN solution containing the internal standard. The reaction mixture was centrifuged at 3700 rpm for 10 min, and the supernatant was collected for analysis.
4) Preparation of the standard curve: the previously diluted 1600 μM solution I was diluted with acetonitrile to 1.5 μM/mL solution III as the standard curve for later use. The standard curve concentration was set to […]. After dilution of each concentration of the standard curve, 75 μL plasma was added to 5 μL of each concentration point at a final concentration of 0.02, 0.05, 0.1, 0.25, 0.75, 1.0 and 1.5 uM, respectively. 300 μL stop solution was then added to the samples quickly which was then centrifuged at 3700 rpm for 10 min, and the supernatant was collected for LC-MSMS analysis.

SMILES | plasma concentration of the compound of the examples ([3]; 0 min) [nM] | plasma concentration of the compound of the examples ([3]; 15 min) [nM] | plasma concentration of the compound of the examples ([3]; 30 min) [nM] | plasma concentration of the compound of the examples ([3]; 60 min) [nM] | plasma concentration of the compound of the examples ([3]; 90 min) [nM] | plasma concentration of the compound of the examples ([3]; 120 min) [nM] | plasma concentration of the compound of the examples ([3]; 180 min) [nM] | stability and metabolism to rolapitant in plasma (in words) [3] | Chemical stability [2] | also measured
Cc1oc(=O)oc1CN1C(=O)CC[C@]12CC[C@@](CO[C@H](C)c1cc(C(F)(F)F)cc(C(F)(F)F)c1)(c1ccccc1)NC2 [Example 3] |  |  |  |  |  |  |  |  | Good (purity reduced by <0.5% after placing for 7 days) | solubility ([1]; PH = 5): < 100 µg/mL
C[C@@H](OC[C@@]1(c2ccccc2)CC[C@]2(CCC(=O)N2)CN1C(=O)OCCN1CCN(C)CC1)c1cc(C(F)(F)F)cc(C(F)(F)F)c1 [Example 4] | 1160 | 980 | 990 | 1000 | 970 | 810 | 780 | relatively stable in plasma | Good (purity reduced by <0.5% after placing for 7 days) | solubility ([1]; phosphate buffer, PH = 3): 2080 µg/mL (≈ 3100 µM)
C[C@@H](OC[C@@]1(c2ccccc2)CC[C@]2(CCC(=O)N2C(=O)OCC(=O)O)CN1)c1cc(C(F)(F)F)cc(C(F)(F)F)c1 [Example 6] | 980 | 850 | 910 | 850 | 770 | 700 | 530 | overall amount of metabolism in plasma is relatively small | Good (purity reduced by <0.5% after placing for 7 days) | solubility ([1]; phosphate buffer, PH = 3): 1120 µg/mL (≈ 1860 µM)
C[C@@H](OC[C@@]1(c2ccccc2)CC[C@]2(CCC(=O)N2COC(=O)N(C)C)CN1)c1cc(C(F)(F)F)cc(C(F)(F)F)c1 [Example 9] |  |  |  |  |  |  |  |  | Good (purity reduced by <0.5% after placing for 7 days) | solubility ([1]; phosphate buffer, PH = 3): < 100 µg/mL
C[C@@H](OC[C@@]1(c2ccccc2)CC[C@]2(CCC(=O)N2)CN1C(=O)OCOC(=O)CN)c1cc(C(F)(F)F)cc(C(F)(F)F)c1 [Example 12] |  |  |  |  |  |  |  |  | Poor (purity reduced by >2.0% after placing for 7 days) | 
C[C@H](N)C(=O)OCOC(=O)N1C[C@@]2(CCC(=O)N2)CC[C@@]1(CO[C@H](C)c1cc(C(F)(F)F)cc(C(F)(F)F)c1)c1ccccc1 [Example 13] |  |  |  |  |  |  |  |  | Moderate (purity reduced by 0.5%~2.0% after placing for 7 days) | 
CC(OC(=O)[C@@H](N)C(C)C)OC(=O)N1C[C@@]2(CCC(=O)N2)CC[C@@]1(CO[C@H](C)c1cc(C(F)(F)F)cc(C(F)(F)F)c1)c1ccccc1 (stereo partly shown) [Example 14] |  |  |  |  |  |  |  |  | Good (purity reduced by <0.5% after placing for 7 days) | solubility ([1]; phosphate buffer, PH = 4): 4500 µg/mL (≈ 6540 µM)
C[C@@H](OC[C@@]1(c2ccccc2)CC[C@]2(CCC(=O)N2)CN1C(=O)OCOC(=O)[C@@H](N)CCCCN)c1cc(C(F)(F)F)cc(C(F)(F)F)c1 [Example 17] |  |  |  |  |  |  |  |  | Moderate (purity reduced by 0.5%~2.0% after placing for 7 days) | 
CC(C)[C@@H](N)C(=O)OCOC(=O)N1C[C@@]2(CCC(=O)N2)CC[C@@]1(CO[C@H](C)c1cc(C(F)(F)F)cc(C(F)(F)F)c1)c1ccccc1.O=C(O)C(F)(F)F [Example 18] |  |  |  |  |  |  |  |  | Good (purity reduced by <0.5% after placing for 7 days) | Water solubility ([1]; PH = 4): 2.62 mg/mL (PH = 4) mg/ml

Continued, in another order:

plasma concentration of the compound of the examples ([3]; 0 min) [nM] | plasma concentration of the compound of the examples ([3]; 15 min) [nM] | plasma concentration of the compound of the examples ([3]; 30 min) [nM] | plasma concentration of the compound of the examples ([3]; 60 min) [nM] | plasma concentration of the compound of the examples ([3]; 90 min) [nM] | plasma concentration of the compound of the examples ([3]; 120 min) [nM] | plasma concentration of the compound of the examples ([3]; 180 min) [nM] | stability and metabolism to rolapitant in plasma (in words) [3] | SMILES | Chemical stability [2] | also measured
1040 | 920 | 970 | 960 | 930 | 950 | 880 | relatively stable in plasma | CC(C)[C@H](N)C(=O)OCCCOC(=O)N1C[C@@]2(CCC(=O)N2)CC[C@@]1(CO[C@H](C)c1cc(C(F)(F)F)cc(C(F)(F)F)c1)c1ccccc1.O=C(O)C(F)(F)F [Example 10] |  | Water solubility ([1]; PH = 3): 1.86 mg/mL(PH = 3) mg/ml; plasma concentration of rolapitant after metabolism of the compound of the examples ([3]; 0 min): 0 nM; plasma concentration of rolapitant after metabolism of the compound of the examples ([3]; 15 min): 0 nM; plasma concentration of rolapitant after metabolism of the compound of the examples ([3]; 30 min): 0 nM; plasma concentration of rolapitant after metabolism of the compound of the examples ([3]; 60 min): 0 nM; plasma concentration of rolapitant after metabolism of the compound of the examples ([3]; 90 min): 0 nM; plasma concentration of rolapitant after metabolism of the compound of the examples ([3]; 120 min): 0 nM; plasma concentration of rolapitant after metabolism of the compound of the examples ([3]; 180 min): 0 nM
1010 | 990 | 910 | 920 | 1030 | 970 | 950 | relatively stable in plasma | CC(C)[C@H](N)C(=O)OCCOC(=O)N1C[C@@]2(CCC(=O)N2)CC[C@@]1(CO[C@H](C)c1cc(C(F)(F)F)cc(C(F)(F)F)c1)c1ccccc1.O=C(O)C(F)(F)F [Example 11] | Good (purity reduced by <0.5% after placing for 7 days) | Water solubility ([1]; PH = 3): 2.81 mg/mL(PH = 3) mg/ml; plasma concentration of rolapitant after metabolism of the compound of the examples ([3]; 0 min): 10 nM; plasma concentration of rolapitant after metabolism of the compound of the examples ([3]; 15 min): 0 nM; plasma concentration of rolapitant after metabolism of the compound of the examples ([3]; 30 min): 0 nM; plasma concentration of rolapitant after metabolism of the compound of the examples ([3]; 60 min): 10 nM; plasma concentration of rolapitant after metabolism of the compound of the examples ([3]; 90 min): 0 nM; plasma concentration of rolapitant after metabolism of the compound of the examples ([3]; 120 min): 0 nM; plasma concentration of rolapitant after metabolism of the compound of the examples ([3]; 180 min): 0 nM
